Experimental data from patent US11710542B2, “Methods of protein docking and rational drug design” (priority 2016, dated 2023).
≈ marks a conversion by molar mass, not a printed value.

Tests used:
E. coli B strain = assay: MIC (MIC90) by broth microdilution, E. coli B strain expressing TEM β-lactamase variants; assay type: cell-based; settings: for MIC: E. coli B strain, no plasmid (no TEM β-lactamase), MIC90
Method: (§1) Plasmids were then transformed into BL21(DE3) cells (Intact Genomics) and DH5a cells (Life Technologies) to create strains in which β-lactamases are expressed using a native promoter.
(§2) Antibiotic resistance of the strains was determined by measuring their minimum inhibitory concentrations (MIC90's) using the broth microdilution method according to the Clinical and Laboratory Standards Institute (CLSI, formerly the NCCLS) guidelines (CLSI document M07-A9, 2012). Each well of a 96-well microtiter plate was filled with 75 μL of sterile Mueller Hinton II (MHII) media broth (Sigma). Each antibiotic was dissolved in water making a 20 mM solution, then diluted with sterile MHII media broth to […] (BP) or 288 μM (CFX). Exactly 75 μL of the compound solution was added to the first well of the microtiter plate and 2-fold serial dilutions were made down each row of the plate. Exactly 75 μL of bacterial inoculum (5×10^5 CFU/mL) was then added to each well giving a total volume of 150 μL/well and compound concentration gradients of […] (BP) and 72 μM-0.04 μM (CXF). The plate was incubated at 37° C. for 17 h, and then each well was examined for bacterial growth. The MIC90 was recorded as the lowest compound concentration required to inhibit 90% of bacterial growth as judged by turbidity of the culture media relative to a row of wells filled with a water standard. Gentamicin was included in a control row at a concentration gradient of 174 μM-0.09 μM.

E. coli K-12 strain = assay: MIC (MIC90) by broth microdilution, E. coli K-12 strain expressing TEM β-lactamase variants; assay type: cell-based; settings: for MIC: E. coli K-12 strain, no plasmid (no TEM β-lactamase), MIC90
Method: as §1, §2

Q: Which results are given for `CC1(C)S[C@@H]2[C@H](NC(=O)Cc3ccccc3)C(=O)N2[C@H]1C(=O)O` [BP, benzylpenicillin]?
A: MIC (E. coli B strain; Escherichia coli): < 23 µM; MIC (E. coli K-12 strain; Escherichia coli, K12STRAIN): 50 µM (≈ 16.7 µg/mL)

Q: How did the MIC (E. coli B strain) turn out when Gentamicin was run?
A: 0.68 µM

Q: And the MIC (E. coli K-12 strain)?
A: 0.34 µM

Q: For `CO/N=C(\C(=O)N[C@@H]1C(=O)N2C(C(=O)O)=C(COC(C)=O)CS[C@H]12)c1csc(N)n1` [CFX, cefotaxime], which MIC (E. coli B strain) is on record?
A: <0.035 µM

Q: What about the MIC (E. coli K-12 strain) of the same molecule?
A: <0.035 µM

B1: TEM-1: wild-type TEM β-lactamase reference (protein, UniProt P62593 24-286, looked up)
Beta-lactamase TEM: HPETLVKVKDAEDQLGARVGYIELDLNSGKILESFRPEERFPMMSTFKVLLCGAVLSRVDAGQEQLGRRIHYSQNDLVEYSPVTEKHLTDGMTVRELCSAAITMSDNTAANLLLTTIGGPKELTAFLHNMGDHVTRLDRWEPELNEAIPNDERDTTMPAAMATTLRKLLTGELLTLASRQQLIDWMEADKVAGPLLRSALPAGWFIADKSGAGERGSRGIIAALGPDGKPSRIVVIYTTGSQATMDERNRQIAEIGASLIKHW
Q: B1 was tested. Which “BP MIC” value (E. coli B strain; benzylpenicillin (BP), E. coli B strain expressing the TEM variant, MIC90, 37° C., 17 h, most commonly observed value, error +/− one well) did it give?
A: 24.00 mM

Q: And the “CFX MIC” value (E. coli B strain; cefotaxime (CFX), E. coli B strain expressing the TEM variant, MIC90, 37° C., 17 h)?
A: <0.035 µM

Q: And the “Gentamicin MIC” value (E. coli B strain; gentamicin (control antibiotic), E. coli B strain expressing the TEM variant, MIC90, 37° C., 17 h)?
A: 0.68 µM

Q: And the “BP MIC” value (E. coli K-12 strain; benzylpenicillin (BP), E. coli K-12 strain expressing the TEM variant, MIC90, 37° C., 17 h)?
A: 24.00 mM

Q: What about the “CFX MIC” value (E. coli K-12 strain; cefotaxime (CFX), E. coli K-12 strain expressing the TEM variant, MIC90, 37° C., 17 h) of the same molecule?
A: <0.035 µM

Q: What about the “Gentamicin MIC” value (E. coli K-12 strain; gentamicin (control antibiotic), E. coli K-12 strain expressing the TEM variant, MIC90, 37° C., 17 h) of the same molecule?
A: 0.17 µM
